Assay results as given in patent US6013621A, “Method of treating psychosis and/or hyperactivity” (The Rockfeller University, priority 1997, dated 2000).
Values joined by “and” are separate entries in the source; they are usually repeats but may differ in a detail not shown here. Equal entries are not always repeated. Where two headings read alike, the source gives them in different places.

Columns and labels:
[1] = prepulse inhibition (PPI) of the startle reflex in mice; assay type: in vivo
Text: Chambers that are used to assess startle are housed in a sound-attenuated room with a 60 dB(A) ambient noise level. Such chambers consist of a Plexiglass cylinder 8.2 cm in diameter resting on a 12.5×25.5 cm Plexiglass frame within a ventilated enclosure. Acoustic noise bursts are presented via a speaker mounted 24 cm above the animal. A piezoelectric accelerometer mounted below the Plexiglass frame detects and transduces motion within the cylinder. The delivery of acoustic stimuli is controlled by a microcomputer. Startle amplitude is defined as the average of 100 readings. Background noise and all acoustic stimuli are delivered through a speaker (frequency response between 0.5 and 16 Khz) in a chamber. The test session consists of giving: (i) a startle stimulus alone (a 118 dB [A] 40 ms broad band burst); or (ii) no stimulation; or (iii) a startle stimulus preceded 100 ms earlier by a prepulse (a 70 dB [A] 20 ms broad band burst). The amount of PPI is expressed as the percentage decrease in the startle response caused by the presentation of the prepulse. The amount of PPI is calculated using the following equation: [(startle amplitude caused by pulse alone minus startle amplitude caused by pulse preceded by prepulse)/(startle amplitude caused by pulse alone)]×100.

[2] = Begley et al., 1990; cited from earlier work
DARPP-32 phosphorylation = DARPP-32 phosphorylation in rat neostriatal slices (FIG. 9); assay type: cell-based; details: forskolin 10 μM plus FK506 at various concentrations
Description: FIG. 9. FK506 increases the level of DARPP-32 phosphorylation in neostriatal slices. Rat neostriatal slices were incubated in the absence (control) or presence of forskolin (10 μM) alone; or forskolin and FK506 using the various concentrations shown.

[3] = system: thr^34 -phosphorylated DARPP-32; test: phospho-DARPP-32 immunoblot in mouse neostriatal slices; assay type: cell-based; details: for increase in the level of phosphorylated DARPP-32 over the already high basal levels: Ca^2+ -free/EGTA medium; for increase in the level of phosphorylated DARPP-32: vs untreated slices
Description: (§1) Preparation and incubation of striatal slices. Male C57BL/6 mice (5-8 weeks old) were sacrificed by decapitation. The brains of the decapitated mice were rapidly removed and placed in ice-cold, oxygenated Krebs-HCO3 -buffer (124 mM NaCl, 4 mM KCl, 26 mM NaHCO3, 1.5 mM CaCl2, 1.25 mM KH2 PO4, 1.5 mM MgSO4 and 10 mM D-glucose, pH 7.4). Coronal slices (350 μm) were prepared using a vibratome. Striatum and nucleus accumbens were dissected from the slices in ice-cold Krebs-HCO3 - buffer. Each slice was placed in a polypropylene incubation tube with 2 ml of fresh Krebs-HCO3 - buffer containing adenosine deaminase (10 μg/ml). The slices were preincubated at 30° C. under constant oxygenation with 95 % O2 /5 % CO2 for 60 minutes. The buffer was replaced with fresh Krebs-HCO3 -buffer after 30 minutes of preincubation. In some experiments, slices were incubated in Ca^2+ -free/EGTA medium (124 mM NaCl, 4 mM KCl, 26 mM NaHCO3, 1.25 mM KH2 PO4, 3.0 mM MgSO4, 10 mM D-glucose and I mM EGTA, pH 7.4) for 20 minutes after 60 minutes of preincubation in Krebs-HCO3 - buffer. Slices were treated with drugs as specified in each experiment.
(§2) Immunoblotting. Frozen tissue samples were sonicated in boiling 1% SDS and boiled for an additional 10 minutes. Small aliquots of the homogenate were retained for protein determination by the BCA protein assay method (Pierce) using bovine serum albumin as a standard. […] The membranes were immunoblotted using a monoclonal antibody (mAb-23; 1:750 dilution) [Snyder et al., (1992)], which is a phosphorylation state-specific antibody raised against a DARPP-32 peptide containing phospho-thr^34, the site phosphorylated by cAMP-dependent protein kinase. A monoclonal antibody (C24-5a; 1:7500 dilution) generated against DARPP-32 (Hemmings and Greengard, 1986), which is not phosphorylation state-specific, was used to estimate the total amount of DARPP-32 in samples.
(§3) Data were analyzed by Student's t -test with significance defined as p<0.05.

[4] = treatment with a D1 antagonist, Karlsson et al., 1995; cited from earlier work
[5] = system: thr^34 -phosphorylated DARPP-32; test: phospho-DARPP-32 immunoblot in nucleus accumbens slices; assay type: cell-based, mouse
Description: as §1, §2, §3

For `C=CC[C@@H]1/C=C(\C)C[C@H](C)C[C@H](OC)[C@H]2O[C@@](O)(C(=O)C(=O)N3CCCC[C@H]3C(=O)O[C@H](/C(C)=C/[C@@H]3CC[C@@H](O)[C@H](OC)C3)[C@H](C)[C@@H](O)CC1=O)[C@H](C)C[C@@H]2OC` [FK506], the “effect on the reduction of PPI mediated by quinpirole” value ([1]; D2 agonist and FK506 concurrently, FK506 intravenously 1 to 1000 nM) is given as “blocks the reduction of PPI mediated by quinpirole”, the “effect on the degree of PPI, FK506 alone” value ([1]; FK506 alone) is given as “can increase the degree of PPI” and the “crossing of the blood-brain barrier” value [2] is given as “effectively crosses the blood-brain barrier”. The “effect on the level of DARPP-32 phosphorylation” value (DARPP-32 phosphorylation) was “increases DARPP-32 phosphorylation in a dose-dependent manner”.
In the case of `C[C@]12N[C@H](Cc3ccccc31)c1ccccc12` [MK801], the “effect on the D2 receptor (quinpirole) decrease of DARPP-32 phosphorylation” value [3] is reported as “not blocked”, the “effect on the basal level of phosphorylated DARPP-32” value (from here on “effect on the basal level”) [3] is reported as “increased” and the “level of phospho-DARPP-32, MK801 (+)” value [3] is reported as 0.247 ± 0.044. The “effect on the NMDA antagonism of the SKF82526-induced increase of phosphorylated DARPP-32” value ([3]; MK801 100 μM, NMDA 100 μM) was “abolished”.
For `CN[C@H](CC(=O)O)C(=O)O` [NMDA], the “effect on the SKF82526-stimulated level of phosphorylated DARPP-32” value [3] was “antagonized” and the “decrease in SKF 82526-induced phosphorylation of DARPP-32” value ([3]; discussion of Table 2 data) was 100%.
In the case of `CN1CCc2cc(Cl)c(O)cc2[C@@H](c2ccccc2)C1` [SCH23390], the “effect on the SKF82526-induced DARPP-32 phosphorylation (D1 antagonist)” value [3] is reported as “abolished”.
In the case of `CN1CCc2cc(Cl)c(O)cc2[C@H]2c3ccccc3CC[C@@H]21` [SCH39166], the “effect on the symptoms of schizophrenia” value [4] is listed as “does not improve but actually worsens the symptoms of schizophrenia”.
In the case of `Oc1ccc(C2CNCCc3c2cc(O)c(O)c3Cl)cc1` (centres unmarked) [SKF82526], the “level of phospho-DARPP-32, TTX (+)” value [3] is reported as 5.492 ± 0.780, the “level of phospho-DARPP-32, TTX (-)” value [3] is reported as 3.282 ± 0.575 and the “increase in the level of phosphorylated DARPP-32 over the already high basal levels” value [3] is reported as 1.55±0.12 fold. For the same molecule, the EC50 ([3]; Mus musculus, dose-dependent increase, read-out: half-maximal effect on DARPP-32 phosphorylation) was about 100 nM, the “increase in the level of phosphorylated DARPP-32” value ([3]; SKF82526 1 μM alone) was 5.37±0.99 fold and 9.36±2.06 fold and the “level of phospho-DARPP-32, Cyclosporin A (-), 5 min” value ([3]; Table 1A, SKF82526 1 μM for 5 min, normalized to control) was 7.14 ± 0.97. The “level of phospho-DARPP-32, Cyclosporin A (-), 30 min” value ([3]; Table 1A, SKF82526 1 μM for 30 min, normalized to control) was 3.07 ± 0.66, the “level of phospho-DARPP-32, Cyclosporin A (+), 5 min” value ([3]; Table 1A, cyclosporin A 5 μM preincubation 60 min, SKF82526 1 μM for 5 min, normalized to control) was 31.6 ± 2.8 and the “level of phospho-DARPP-32, Cyclosporin A (+), 30 min” value ([3]; Table 1A, cyclosporin A 5 μM preincubation 60 min, SKF82526 1 μM for 30 min, normalized to control) was 28.0 ± 3.1. For the same molecule, the “level of phospho-DARPP-32, Cyclosporin A (+)” value ([3]; Table 1C, cyclosporin A 5 μM 60 min, quinpirole 1 μM 5 min preincubation, SKF82526 1 μM 5 min, normalized to control) was 21.1 ± 2.3, the “level of phospho-DARPP-32, Cyclosporin A (-)” value ([3]; Table 1C, quinpirole 1 μM 5 min preincubation, SKF82526 1 μM 5 min, normalized to control) was 10.61 ± 2.28 and the “level of phospho-DARPP-32, MK801 (+)” value ([3]; Table 2, MK801 100 μM from 0 min, NMDA 100 μM or quinpirole 1 μM at 10 min, SKF82526 1 μM at 15 min of 20 min, normalized to SKF82526 alone) was 1.115 ± 0.078. The “level of phospho-DARPP-32, MK801 (-)” value ([3]; Table 2, NMDA 100 μM or quinpirole 1 μM at 10 min, SKF82526 1 μM at 15 min of 20 min, normalized to SKF82526 alone) was 1.000 and the “increase in the level of phosphorylated DARPP-32” value ([5]; SKF82526 1 μM) was “about 7 fold”.
With `NC1=N[C@H](O)[C@H]2[C@H]3O[C@]4(O)O[C@@H]([C@@H](O)[C@@]2(N1)[C@@H]4O)[C@]3(O)CO` [TTX, tetrodotoxin] the “effect on the SKF82526-stimulated level of phosphorylated DARPP-32” value [3] was “increased”, the “effect on the basal level” value [3] was “increased” and the “effect on the effect of quinpirole on DARPP-32 phosphorylation” value [3] was “failed to reduce”. For the same molecule, the “level of phospho-DARPP-32, TTX (+)” value [3] was 1.000.
For `NCCc1ccc(O)c(O)c1` [dopamine], the “increase in the level of phosphorylated DARPP-32” value ([3]; dopamine 100 μM plus nomifensine 10 μM) was 6.64±1.36 fold.
With `C=C[C@@]1(C)CC(=O)[C@]2(O)[C@@]3(C)[C@@H](O)CCC(C)(C)[C@@H]3[C@H](O)[C@H](OC(C)=O)[C@@]2(C)O1` [forskolin] the “increase in the level of phosphorylated DARPP-32 over the already high basal levels” value [3] was 2.04±0.22 fold and the “increase in the level of phosphorylated DARPP-32 after 5 minutes” value ([3]; forskolin 10 μM, 8-bromo-cAMP 1 mM) was 20 fold.
With `CCCN1CCC[C@@H]2Cc3n[nH]cc3C[C@H]21` [quinpirole] the “effect on the basal level” value [3] was “decreased”.
For `CCN1CCC[C@H]1CNC(=O)c1c(O)c(Cl)cc(Cl)c1OC` [raclopride], the “effect on the basal level” value [3] was “slightly increased”, the “effect on the ability of quinpirole to decrease the SKF82526-stimulated level of phosphorylated DARPP-32” value ([3]; raclopride 1 μM) was “dramatically reduced” and the “effect on the ability of quinpirole to decrease the basal level of phosphorylated DARPP-32” value ([3]; raclopride 1 μM, quinpirole (100 μM)) was “blocked”. For the same molecule, the “effect on the quinpirole-induced decrease in SKF82526-stimulated DARPP-32 phosphorylation” value ([5]; raclopride 1 μM) was “abolished”, the “effect on the quinpirole-induced decrease in basal DARPP-32 phosphorylation” value ([5]; raclopride 1 μM) was “abolished” and the “effect on the basal level” value ([5]; raclopride alone 1 μM) was “small increase”.
For `C/C=C(/C)C(=O)O[C@H]1C(C)=C2[C@H]([C@@H]1OC(=O)CCCCCCC)[C@@](C)(OC(C)=O)C[C@H](OC(=O)CCC)[C@@]1(O)[C@H]2OC(=O)[C@@]1(C)O` [thapsigargin], the “reduction of the level of phosphorylated DARPP-32 seen with SKF82526” value ([3]; thapsigargin 5 μM added 5 min before SKF82526 1 μM for 5 minutes) was 46.9±7.7%.
